Assay results reported in US20120232046A1, “METHOD AND KIT FOR REDUCING THE SYMPTOMS OF PERIPHERAL VASCULAR DISEASE” (Dimera Incorporated, priority 2003, published 2012).

What was measured:
Format in all cases: cell-based, rhesus monkeys
[1] = tested on: isolated peripheral vascular muscle cells (VMC) from large arteries of the foreleg; experiment: Averaged Ca2+ signals in nicotine-stimulated VMC; conditions: VMC pre-treated with wash of 4 ng/ml hormone; for decrease in peripheral-to-central Ca2+ localization ratio / peak of Ca2+ increase after nicotine stimulation: 10 μM nicotine; for peak of Ca2+ increase after nicotine stimulation: versus non-treatment group; for whole cell Ca2+ response to nicotine stimulation: stimulated with 10 μM nicotine
Source text: (§1) Single VMCs from large arteries of the foreleg of adult rhesus monkeys are isolated and studied both as freshly dispersed and as primary cultures. The short-term primary cultured cells (never passaged) maintain the characteristics of the source tissue for 2 to 3 weeks, including contraction, relaxation, receptors, and membrane electrical properties. VMCs are dissociated with collagenase and protease enzymes in a potassium glutamate solution (KG) that prevents loading with Na^+, Ca^2′, or Cl^− and results in a high proportion of viable, contracting cells. See, Self, D. A., et al., J. Vasc. Res. 31:359-366 (1994); and Rusch., N. J., et al., Physiology and Pathophysiology of the Heart, 999-1010 (1995), each of which is incorporated herein by reference. The cells prepared for culture are seeded at low density in cardiovascular culture solution for mammals, fifth generation (CV5M) on glass coverslips to facilitate selection of individual cells. VMCs are used for studies 7 to 14 days after attaching to coverslips.
(§2) Freshly dispersed or primary cultured VMCs on glass coverslips are placed in a chamber of laminar flow design and observed with a high numerical aperture water immersion objective. Ionic solution for mammals version 2 (ISM2) is continuously pumped through the chamber (at 1 ml/minute) to provide continuous equilibration and washout of drugs. After a 15 minutes equilibration period, VMC are loaded for 15 minutes at room temperature with 3 μM fluo 3 (Molecular Probes, Inc.) for sensing Ca^2+ and for 10 minutes with 30-100 nM hypericin (LC Laboratories) for reporting PKC. Individual VMC are stimulated by adding 20 μl of 10 μM nicotine over the individual cell. After 15 seconds under no-flow conditions, continuous flow of ISM2 was reinstated and a chamber volume of approximately 300 μl was maintained. Fluorescent images are taken at 1, 2, 5, 10, 15, 20 and 30 minutes after stimulation for Ca^2+ and at 3, 4, 9, 16, 21 and 31 minutes for PKC to evaluate subcellular distribution of these signals, and to determine VMC contraction.
(§3) ISM2 contains (in mM): 100 NaCl, 4 NaHCO3, 0.5 NaH2PO4, 4.7 KCl, 1.8 CaCl2, 0.41 […], 50 HEPES (pH 7.37), and 5.5 dextrose; KG solution contains (in mM); 140 K-glutamate, 16 NaHCO3, 0.5 NaH2PO4, 30 HEPES, and 16.5 dextrose at pH 7.3. CV5M contains: 4.0 mM L-glutamine, 10 μg/ml ciprofloxacin (Miles Pentex/Bayer Corporation), 50 mM HEPES (pH 7.3), and 16 mM NaHCO3 dissolved in 85% MEM-Earle's salts and 15% horse serum. Phenol red, known to have estrogenic activity, is omitted from all solutions.
One group of cells is pre-treated with a wash of 4 ng/ml of progesterone before stimulation with nicotine. A second group of cells is pre-treated with a wash of 4 ng/ml testosterone before stimulation. A third group of cells, the “non-treatment group”, is pre-treated with a wash of normal saline before stimulation. A fourth group of cells, which forms the control group, is pre-treated with a wash of normal saline and followed by “stimulation” with normal saline.
Normalized (per pixel) changes in intracellular Ca^2+ levels are expressed as averages over whole VMC and as peripheral-to-central ratios. […] The ratio decreases because of Ca^2+ release from intracellular stores.

[2] = tested on: isolated peripheral vascular muscle cells (VMC) from large arteries of the foreleg; experiment: Averaged PKC signals in nicotine-stimulated VMC; conditions: VMC pre-treated with wash of 4 ng/ml hormone, 10 μM nicotine; for peripheral-to-central PKC ratio: versus control; for change of PKC loci or intensity after nicotine stimulation: versus control values
Source text: as §1, §2, §3
One group of cells is pre-treated with a wash of 4 ng/ml of progesterone before stimulation with nicotine. A second group of cells is pre-treated with a wash of 4 ng/ml testosterone before stimulation. […]

[3] = tested on: isolated peripheral vascular muscle cells (VMC) from large arteries of the foreleg; experiment: Averaged contractions (cell width) of nicotine-stimulated VMC; conditions: primary cultured VMC pre-treated with wash of 4 ng/ml hormone, 10 μM nicotine; versus 0-min controls
Source text: as §1
Freshly dispersed or primary cultured VMCs on glass coverslips are placed in a chamber of laminar flow design and observed with a high numerical aperture water immersion objective. […]
Normalized changes in cell widths from primary cultured VMC is determined.

CC(=O)[C@H]1CC[C@H]2[C@@H]3CCC4=CC(=O)CC[C@]4(C)[C@H]3CC[C@]12C [progesterone]
decrease in peripheral-to-central Ca2+ localization ratio [1]: too small to be significant | peak of Ca2+ increase after nicotine stimulation [1]: smaller peak than in the non-treatment group | whole cell Ca2+ response to nicotine stimulation [1]: only transiently stimulated by nicotine | peripheral-to-central PKC ratio [2]: never significantly different from control | change of PKC loci or intensity after nicotine stimulation [2]: fails to change PKC loci or intensity significantly from control values | VMC contractions (central cell widening) [3]: significantly different from 0-min controls only in the first few minutes following stimulation

C[C@]12CC[C@H]3[C@@H](CCC4=CC(=O)CC[C@@]43C)[C@@H]1CC[C@@H]2O [testosterone]
decrease in peripheral-to-central Ca2+ localization ratio [1]: too small to be significant | peak of Ca2+ increase after nicotine stimulation [1]: smaller peak than in the non-treatment group | whole cell Ca2+ response to nicotine stimulation [1]: only transiently stimulated by nicotine | peripheral-to-central PKC ratio [2]: never significantly different from control | change of PKC loci or intensity after nicotine stimulation [2]: fails to change PKC loci or intensity significantly from control values | VMC contractions (central cell widening) [3]: significantly different from 0-min controls only in the first few minutes following stimulation
